Laboratory results: US4499091A, “1-Amino (or substituted amino)-1,4-dihydro-4-oxo-6-fluoro-7-heterylquinoline-3-carboxylic acids and their use as antibacterial agents” (Sterling Drug Inc., priority 1983, dated 1985)
≈ marks a conversion by molar mass, not a printed value. Like-named read-outs stand apart in the source and are kept apart here.

Experiments:
[1] = system: Klebsiella pneumoniae 39645; assay: in vivo antibacterial activity in mice infected with K. pneumoniae (PD50); parameters: species or system mouse (female) infected with Klebsiella pneumoniae
Description: (§1) The in vivo antibacterial activity of the compounds of the invention was determined in female mice, 18-20 grams each, by the following procedure:
(§2) Aqueous solutions of the compounds to be tested were prepared by dissolving the free acid form in dilute sodium hydroxide and diluting the solution with distilled water to be desired volume.
(§3) Cultures of Escherichia coli Vogel prepared in brain heart infusion broth, cultures of Klebsiella pneumoniae 39645 grown in tryptose phosphate broth with 5% rabbit serum diluted in the same broth and cultures of Pseudomonas aeruginosa MGH-2 grown on brain heart infusion agar and suspended in physiological saline, were used to infect the mice as follows:
K. pneumoniae: mice were inoculated intramuscularly in the right hind leg with 0.2 ml of the bacterial test inoculum (2.05×10^4 cells/ml).
Mice infected with K. pneumoniae were medicated at the following times: seventeen hours and one hour preinfection, six hours postinfection and twice a day for the next three days. The test compound was administered by both subcutaneous (0.2 ml) and oral (0.5 ml) routes. Deaths were recorded daily for fourteen days.
(§4) Groups of ten animals each for four or five dose levels were thus treated and the number of survivors in each group recorded. The fifty percent protective dose values (PD50) were then calculated.

[2] = system: Staphylococcus aureus Smith; assay: in vitro antibacterial activity, serial dilution (MIC); assay type: cell-based; conditions: 18-20 hours static incubation, read-out: Minimal Inhibitory Concentration (MIC)
Description: (§5) The in vitro antibacterial activity of the compounds of the invention was determined by conventional serial dilution procedures. Bacterial cultures were grown in tryptose phosphate broth or brain heart infusion broth (containing heat-inactivated normal horse serum for tests with S. pyogenes) overnight at 37° C. and subsequently diluted in double strength broth to provide bacterial inocula of about 2×10^5 cells/ml. Aqueous solutions of the compounds of the invention were prepared by dissolving the free acid form in 0.5N sodium hydroxide. The solutions were diluted with sterile distilled water to 1000 mcg/ml of compound in terms of the free acid. Serial two-fold dilutions of the compound stock solutions were prepared in water and 0.5 ml of each dilution was transferred to sets of tubes, one set for each bacterial inoculum.

[3] = system: Pseudomonas aeruginosa MGH-2; assay: as above; assay type: cell-based; conditions: MGH2, 18-20 hours static incubation, read-out: Minimal Inhibitory Concentration (MIC)
Description: as §5

Escherichia coli Vogel [4] = assay: in vivo antibacterial activity in mice infected with E. coli (PD50); parameters: species or system mouse (female) infected with Escherichia coli; conditions: 168 h
Description: as §1, §2, §3
Mice infected with E. coli were medicated once (0.5 ml) one-half hour post infection, the test compound being administered by either the subcutaneous (s.c.) or oral (p.o.) route. Deaths were recorded daily for seven days.
as §4

Proteus vulgaris 9920 = assay: in vitro antibacterial activity, serial dilution (MIC); assay type: cell-based; conditions: 18-20 hours static incubation, read-out: Minimal Inhibitory Concentration (MIC)
Description: as §5

Escherichia coli Vogel [5] = assay: as above; assay type: cell-based; conditions: 18-20 hours static incubation, read-out: Minimal Inhibitory Concentration (MIC)
Description: as §5

[6] = system: Klebsiella pneumoniae 39645; assay: as above; assay type: cell-based; conditions: 18-20 hours static incubation, read-out: Minimal Inhibitory Concentration (MIC)
Description: as §5

Proteus mirabilis MGH-1 = assay: as above; assay type: cell-based; conditions: MGH1, 18-20 hours static incubation, read-out: Minimal Inhibitory Concentration (MIC)
Description: as §5

[7] = system: Streptococcus pyogenes C203; assay: as above; assay type: cell-based; conditions: 18-20 hours static incubation, read-out: Minimal Inhibitory Concentration (MIC)
Description: as §5

[8] = Klebsiella pneumoniae, 39645, sc, 336 h, mouse, K. pneumoniae, s.c., pre- and postinfection, 14 days, read-out: Protective Dose (PD50)
[9] = sc, mouse, E. coli, s.c., once one-half hour post infection, 7 days, read-out: Protective Dose (PD50)

## Nn1cc(C(=O)O)c(=O)c2cc(F)c(N3CCNCC3)cc21 [Example 2, 1-Amino-6-fluoro-1,4-dihydro-4-oxo-7-(1-piperazinyl)-3-quinolinecarboxylic acid]
[1]; Klebsiella pneumoniae, 39645, sc, 336 h, read-out: Protective Dose (PD50)
  ED50: > 200 mg/kg
[2]
  MIC: 31.3 µg/mL (≈ 102 µM)
[3]
  MIC: 62.5 µg/mL (≈ 204 µM)
Escherichia coli Vogel [4]; sc, read-out: Protective Dose (PD50)
  ED50: > 200 mg/kg

## CNn1cc(C(=O)O)c(=O)c2cc(F)c(N3CCCCC3)cc21 [Example 15, 6-Fluoro-1,4-dihydro-1-methylamino-4-oxo-7-(1-piperidinyl)-3-quinolinecarboxylic acid]
[1]; [8]
  ED50: > 200 mg/kg
[2]
  MIC: 1.95 µg/mL (≈ 6.11 µM)
Proteus vulgaris 9920
  MIC: 0.5 µg/mL (≈ 1.57 µM)
Escherichia coli Vogel [4]; [9]
  ED50: > 200 mg/kg

## CNn1cc(C(=O)O)c(=O)c2cc(F)c(N3CCCC3)cc21 [Example 16, 6-Fluoro-1,4-dihydro-1-methylamino-4-oxo-7-(1-pyrrolidinyl)-3-quinolinecarboxylic acid]
[1]; [8]
  ED50: > 200 mg/kg
[2]
  MIC: 0.5 µg/mL (≈ 1.64 µM)
Proteus vulgaris 9920
  MIC: 0.5 µg/mL (≈ 1.64 µM)
Escherichia coli Vogel [5]
  MIC: 1 µg/mL (≈ 3.28 µM)
Escherichia coli Vogel [4]; [9]
  ED50: > 200 mg/kg

## CNn1cc(C(=O)O)c(=O)c2cc(F)c(Cl)cc21 [7-Chloro-6-fluoro-1,4-dihydro-1-methylamino-4-oxo-3-quinolinecarboxylic acid]
[1]; Klebsiella pneumoniae, 39645, 336 h, mouse, K. pneum., route not stated, read-out: fifty percent protective dose
  ED50: 186 mg/kg
[6]
  MIC: 1.95 µg/mL (≈ 7.2 µM)
Escherichia coli Vogel [5]
  MIC: 1 µg/mL (≈ 3.69 µM)
Proteus mirabilis MGH-1
  MIC: 1 µg/mL (≈ 3.69 µM)
Escherichia coli Vogel [4]; mouse, E. coli, route not stated, read-out: fifty percent protective dose
  ED50: 56 mg/kg

## CNn1cc(C(=O)O)c(=O)c2cc(F)c(N3CCN(C)CC3)cc21 [Example 1, 6-Fluoro-1,4-dihydro-1-methylamino-7-(4-methyl-1-piperazinyl)-4-oxo-3-quinolinecarboxylic acid]
[1]; Klebsiella pneumoniae, 39645, po, 336 h, mouse, K. pneumoniae, p.o., pre- and postinfection, 14 days, read-out: Protective Dose (PD50)
  ED50: 10.6 mg/kg
[1]; [8]
  ED50: 8.8 mg/kg
[3]
  MIC: 1 µg/mL (≈ 2.99 µM)
[6]
  MIC: 0.25 µg/mL (≈ 0.748 µM)
Proteus vulgaris 9920
  MIC: 0.125 µg/mL (≈ 0.374 µM)
Escherichia coli Vogel [5]
  MIC: 0.25 µg/mL (≈ 0.748 µM)
Proteus mirabilis MGH-1
  MIC: 0.5 µg/mL (≈ 1.5 µM)

## CNn1cc(C(=O)O)c(=O)c2cc(F)c(N3CCOCC3)cc21 [Example 13, 6-Fluoro-1,4-dihydro-1-methylamino-7-(4-morpholinyl)-4-oxo-3-quinolinecarboxylic acid]
[1]; [8]
  ED50: 200 mg/kg
[2]
  MIC: 1 µg/mL (≈ 3.11 µM)
[3]
  MIC: 15.6 µg/mL (≈ 48.6 µM)
[7]
  MIC: 15.6 µg/mL (≈ 48.6 µM)
[6]
  MIC: 1.95 µg/mL (≈ 6.07 µM)
Proteus vulgaris 9920
  MIC: 0.125 µg/mL (≈ 0.389 µM)
Escherichia coli Vogel [5]
  MIC: 0.5 µg/mL (≈ 1.56 µM)
Escherichia coli Vogel [4]; [9]
  ED50: 16.3 mg/kg

## CCCN1CCN(c2cc3c(cc2F)c(=O)c(C(=O)O)cn3NC)CC1 [Example 11, 6-Fluoro-1,4-dihydro-1-methylamino-4-oxo-7-(4-propyl-1-piperazinyl)-3-quinolinecarboxylic acid]
[1]; [8]
  ED50: 81.5 mg/kg
[2]
  MIC: 1.95 µg/mL (≈ 5.38 µM)
[6]
  MIC: 0.5 µg/mL (≈ 1.38 µM)
Proteus vulgaris 9920
  MIC: 0.25 µg/mL (≈ 0.69 µM)
Escherichia coli Vogel [5]
  MIC: 0.25 µg/mL (≈ 0.69 µM)
Proteus mirabilis MGH-1
  MIC: 1 µg/mL (≈ 2.76 µM)
Escherichia coli Vogel [4]; [9]
  ED50: 14.8 mg/kg

## CNn1cc(C(=O)O)c(=O)c2cc(F)c(N3CCCNCC3)cc21 [Example 19, 6-Fluoro-7-(hexahydro-1H-1,4-diazapin-1-yl)-1,4-dihydro-1-methylamino-4-oxo-3-quinolinecarboxylic acid]
[1]; [8]
  ED50: > 50 mg/kg
[7]
  MIC: 31.3 µg/mL (≈ 93.6 µM)
[6]
  MIC: 15.6 µg/mL (≈ 46.7 µM)
Proteus vulgaris 9920
  MIC: 1 µg/mL (≈ 2.99 µM)
Proteus mirabilis MGH-1
  MIC: 1.95 µg/mL (≈ 5.83 µM)
Escherichia coli Vogel [4]; [9]
  ED50: 2.5 mg/kg

## CCN1CCN(c2cc3c(cc2F)c(=O)c(C(=O)O)cn3NC)CC1 [Example 8, 7-(4-Ethyl-1-piperazinyl)-6-fluoro-1,4-dihydro-1-methylamino-4-oxo-3-quinolinecarboxylic acid]
[1]; [8]
  ED50: 15.1 mg/kg
[2]
  MIC: 1 µg/mL (≈ 2.87 µM)
[3]
  MIC: 2 µg/mL (≈ 5.74 µM)
[6]
  MIC: 0.5 µg/mL (≈ 1.44 µM)
Proteus vulgaris 9920
  MIC: 0.25 µg/mL (≈ 0.718 µM)
Escherichia coli Vogel [5]
  MIC: 0.5 µg/mL (≈ 1.44 µM)
Proteus mirabilis MGH-1
  MIC: 1 µg/mL (≈ 2.87 µM)
Escherichia coli Vogel [4]; [9]
  ED50: 1.4 mg/kg

## CNn1cc(C(=O)O)c(=O)c2cc(F)c(N3CC[N+](C)([O-])CC3)cc21 [4'-oxide]
[6]
  MIC: 32 µg/mL (≈ 91.3 µM)
Escherichia coli Vogel [5]
  MIC: 16 µg/mL (≈ 45.7 µM)
Proteus mirabilis MGH-1
  MIC: 32 µg/mL (≈ 91.3 µM)

## CCNn1cc(C(=O)O)c(=O)c2cc(F)c(N3CCN(C)CC3)cc21 [Example 5, 1-Ethylamino-6-fluoro-1,4-dihydro-7-(4-methyl-1-piperazinyl)-4-oxo-3-quinolinecarboxylic acid]
[1]; [8]
  ED50: 90 mg/kg
[7]
  MIC: 31.3 µg/mL (≈ 89.8 µM)
[6]
  MIC: 0.5 µg/mL (≈ 1.44 µM)
Proteus vulgaris 9920
  MIC: 0.25 µg/mL (≈ 0.718 µM)
Escherichia coli Vogel [5]
  MIC: 0.5 µg/mL (≈ 1.44 µM)
Escherichia coli Vogel [4]; [9]
  ED50: 4.1 mg/kg

## CNn1cc(C(=O)O)c(=O)c2cc(F)c(N3CCCC(O)C3)cc21 (stereo not drawn) [Example 18, 6-Fluoro-1,4-dihydro-7-(3-hydroxy-1-piperidinyl)-1-methylamino-4-oxo-3-quinolinecarboxylic acid]
[1]; [8]
  ED50: > 200 mg/kg
[2]
  MIC: 1.95 µg/mL (≈ 5.82 µM)
[3]
  MIC: 31.3 µg/mL (≈ 93.3 µM)
[7]
  MIC: 15.6 µg/mL (≈ 46.5 µM)
Proteus vulgaris 9920
  MIC: 0.25 µg/mL (≈ 0.746 µM)
Escherichia coli Vogel [4]; [9]
  ED50: 38 mg/kg

## CCOC(=O)c1cn(NC)c2cc(N3CCN(C)CC3)c(F)cc2c1=O [Example 9, Ethyl 6-fluoro-1,4-dihydro-1-methylamino-7-(4-methyl-1-piperazinyl)-4-oxo-3-quinolinecarboxylate]
[1]; [8]
  ED50: > 200 mg/kg
[6]
  MIC: 62.5 µg/mL (≈ 172 µM)
Proteus vulgaris 9920
  MIC: 31.3 µg/mL (≈ 86.4 µM)
Escherichia coli Vogel [5]
  MIC: 62.5 µg/mL (≈ 172 µM)
Proteus mirabilis MGH-1
  MIC: 12.5 µg/mL (≈ 34.5 µM)
Escherichia coli Vogel [4]; [9]
  ED50: 4.4 mg/kg

## C=CCNn1cc(C(=O)O)c(=O)c2cc(F)c(N3CCN(C)CC3)cc21 [Example 12, 6-Fluoro-1,4-dihydro-7-(4-methyl-1-piperazinyl)-4-oxo-1-(2-propenylamino)-3-quinolinecarboxylic acid]
[1]; [8]
  ED50: 141 mg/kg
[3]
  MIC: 15.6 µg/mL (≈ 43.3 µM)
[7]
  MIC: 62.5 µg/mL (≈ 173 µM)
[6]
  MIC: 1.95 µg/mL (≈ 5.41 µM)
Proteus vulgaris 9920
  MIC: 1 µg/mL (≈ 2.77 µM)
Escherichia coli Vogel [5]
  MIC: 1 µg/mL (≈ 2.77 µM)
Escherichia coli Vogel [4]; [9]
  ED50: 18.9 mg/kg

## CN1CCN(c2cc3c(cc2F)c(=O)c(C(=O)O)cn3N(C)C=O)CC1 [Example 23, 6-Fluoro-1-(N-formylmethylamino)-1,4-dihydro-7-(4-methyl-1-piperazinyl)-4-oxo-3-quinolinecarboxylic acid]
[1]; [8]
  ED50: > 200 mg/kg
[2]
  MIC: 15.6 µg/mL (≈ 43.1 µM)
[6]
  MIC: 1.95 µg/mL (≈ 5.38 µM)
Proteus vulgaris 9920
  MIC: 1 µg/mL (≈ 2.76 µM)
Escherichia coli Vogel [5]
  MIC: 1.95 µg/mL (≈ 5.38 µM)
Escherichia coli Vogel [4]; [9]
  ED50: 10.4 mg/kg

## CNn1cc(C(=O)O)c(=O)c2cc(F)c(N3CCC(O)CC3)cc21 [Example 17, 6-Fluoro-1,4-dihydro-7-(4-hydroxy-1-piperidinyl)-1-methylamino-4-oxo-3-quinolinecarboxylic acid]
[1]; [8]
  ED50: 200 mg/kg
[2]
  MIC: 1.95 µg/mL (≈ 5.82 µM)
[7]
  MIC: 31.3 µg/mL (≈ 93.3 µM)
Proteus vulgaris 9920
  MIC: 0.125 µg/mL (≈ 0.373 µM)
Escherichia coli Vogel [5]
  MIC: 1.95 µg/mL (≈ 5.82 µM)
Escherichia coli Vogel [4]; [9]
  ED50: 12.5 mg/kg

## CCCNn1cc(C(=O)O)c(=O)c2cc(F)c(Cl)cc21 [7-Chloro-6-fluoro-1,4-dihydro-4-oxo-1-propylamino-3-quinolinecarboxylic acid]
[2]
  MIC: 15.6 µg/mL (≈ 52.2 µM)
[7]
  MIC: 15.6 µg/mL (≈ 52.2 µM)
[6]
  MIC: 31.3 µg/mL (≈ 105 µM)
Proteus vulgaris 9920
  MIC: 3.9 µg/mL (≈ 13.1 µM)
Escherichia coli Vogel [5]
  MIC: 15.6 µg/mL (≈ 52.2 µM)
